Assay results as given in patent US20240425457A1, “COMPOSITIONS AND METHODS FOR SUPPRESSING AND/OR TREATING METABOLIC DISEASES AND/OR A CLINICAL CONDITION THEREOF” (CK Biotech Inc., priority 2018, published 2024).
Entries after “also recorded” stand apart in the source; their conditions may differ. Read-outs that look alike come from different tables or passages of the source.

Legend:
MCD-induced NASH mice = assay: MCD diet-induced NASH mice; assay type: in vivo; conditions: MCD diet 7 weeks; for hepatosteatosis (H&E): then 25 mg/kg daily oral gavage 3 weeks
Experimental: NASH study. Eight-week-old wild-type male C57BL/6N mice (KOATECH, Seoul, Korea) were fed on the methionine-choline deficient (MCD) diet for 7 weeks, followed by treatment with vehicle, A3334, A3051, or I3O of (25 mg kg^−1) sitagliptin (25 mg kg^−1) for another 3 weeks via daily oral gavage.
Collagen staining. 4 µm-liver tissues sections were stained using two common collagen staining methods. For Masson's trichrome staining, slides were fixed in Bouin's solution for 1 h. After incubation in Weigert's iron hematoxylin solution for 10 min, the slides were stained with Biebrich Scarlet-Acid Fuchsin and Aniline blue for 5 min. The collagen fibers were stained blue and the nuclei were stained black. For picrosirius red staining, sections were stained with Weigert's solution for 8 min and picrosirius red for 1 h. The collagen fibers were stained red with blue nuclei.

HFD-fed mice = assay: HFD-induced obesity/diabetes mice, 5-day oral courses at weeks 8/9 and 12; assay type: in vivo; conditions: for fasting glucose level: A3334, A3051, I3O 25, sitagliptin 50, metformin 100 mg/kg
From the text: Animals. The generation of Cxxc5^−/− mice has been described previously. Cxxc5 heterozygous mice were intercrossed for four generations to obtain littermate wild-type and Cxxc5^−/− mice and were maintained on a C57BL/6 background. Six-week-old Cxxc5^+/+ and Cxxc5^−/− mice were fed HFD for 8 weeks. Wild-type male C57BL/6 mice (KOATECH, Seoul, Korea) were fed HFD consisting of 60% calories from fat (Research Diet, D12492) for 8 weeks. To validate that the insulin resistance mouse model was successfully established, fasting glucose levels were assessed with a One Touch Ultra glucometer (LifeScan). Subsequently, each HFD-fed mouse with a fasting glucose level higher than 16.7 mmol/L was orally administered A3334 (25 mg kg^−1), sitagliptin (50 mg kg^−1), or metformin (100 mg kg^−1) each day for 5 days at weeks 8 and 12. After the removal of the drugs, mice were maintained for 3 weeks on the HFD. To monitor pancreas regeneration, six-week-old Cxxc5^+/+ and Cxxc5^−/− mice were fed an HFD as above. After dietary treatment for 4 weeks, the mice were intraperitoneally injected with STZ (50 mg/kg/d) for 1 week and the control group were injected with saline. After 2 weeks, Cxxc5^+/+ mice were administered A3334 (25 mg kg^−1) and sitagliptin (50 mg kg^−1) per day by oral gavage for 4 weeks. For GTT or ITT, mice were injected with D-glucose (1.5 g/kg body weight) after overnight starvation or human insulin (0.75 units/kg body weight) after 4 h starvation, respectively. Tail blood was drawn at 0, 15, 30, 60, 120, 180 min intervals and blood glucose level was measured with a One Touch Ultra glucometer. All mice were maintained under temperature-controlled and light-controlled (standard 12 h light/dark cycle) conditions and provided with food and water ad libitum. All protocols were reviewed and approved by the Institutional Review Board of Severance Hospital, Yonsei University College of Medicine (09-013).
Blood chemistry. Total blood of mice was collected by cardiac puncture after fasting. The blood was allowed to clot for 30 min and was then centrifuged for 10 min at 1,000×g to obtain supernatant to measure metabolic parameters. ELISA assay kits were used to assess serum insulin (Millipore), serum FFA (Cayman Chemical), serum adiponectin (ABclonal). The insulin function test was evaluated by HOMA-IR and was calculated as fasting plasma glucose (m mol/l)×fasting serum insulin (mU/l)/22.5. Serum chemistry variables included total cholesterol, HDL-cholesterol, glucose, TG, ALT, AST, ALP, Ca, and Mg concentration. The calibration of serum parameters was performed using the quality control card supplied with the FUJI DRI-CHEM slides whenever slides from a new lot were used. […]
Hematoxylin and eosin (H&E) staining. Dissected tissues were fixed in 4% neutral paraformaldehyde and embedded in paraffin. The paraffin sections were cut at a thickness of 4 μm and subjected to H&E staining. The adipocyte cell size was measured in 20 randomly chosen microscopic areas from 3 independent animals using a Nikon bright-field optical microscope (Nikon TE-2000U). The average adipocyte size was determined using Image J software. […]
Metabolic monitoring and body composition. Metabolic performance (energy intake and energy expenditure) was studied using a PHENOMASTER automated combined indirect calorimetry system (TSE system GmBH). The mice were first acclimated for 24 h in a metabolic chamber and were provided with food and water. They were then subsequently evaluated for 3 days to measure oxygen consumption (VO2), carbon dioxide production (VCO2), ambulatory counts, and respiratory exchange ratio. An LF50 body composition analyzer (Bruker) was used to determine body composition (lean body mass and total body fat) of the mice. The temperature for these studies remained at 22° C., with a 12 h light/dark cycle. Standard in-house software was used for energy expenditure.
Quantitative real-time polymerase chain reaction (PCR). […]

CXXC5-DVL interaction [1] = target: T1, CXXC5-DVL interaction (Homo sapiens, UniProt O14640); assay: Dvl-CXXC5 in vitro binding assay, (PTD-DBMP)-(PZD-DVL), concentration dependent
T1 sequence (O14640 251-323 limits assumed): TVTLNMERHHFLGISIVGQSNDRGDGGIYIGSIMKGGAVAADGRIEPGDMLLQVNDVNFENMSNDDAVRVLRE

CXXC5-DVL interaction [2] = target: T1, CXXC5-DVL interaction; assay: in vitro CXXC5-DVL PPI inhibition screening assay (FITC-tagged PTD-DBMP on DVL-PDZ, fluorescence); assay type: binding
Experimental: Screening for compounds that inhibit the CXXC5-DVL interaction. […] CELL. DEATH. DIFFER. […] After the addition of 10 μM FITC-tagged PTD-DBMP to each well, each compound in the chemical library or control (DMSO) was treated to the well at a final concentration of 30 μM. The fluorescence intensity was measured using a Fluorstar Optima microplate reader (BGM Lab Technologie, Ortenberg, Germany) and normalized as follows: “(‘compounds-treated group’−‘blank’)/(‘DMSO-treated control’−‘blank’)*100”.

[3] = HFD mice, p.o. daily 5 days at weeks 8/9 and 12
[4] = FIG. 33A-33C, unit inferred, read-out: IC50, in vitro (PTD-DBMP)-(PZD-DVL) binding analyses
[5] = HFD mice, 5-day courses at weeks 8/9 and 12, A3334 25 mg/kg, 25 mg/kg

## CO/N=C1/C(=C2/C(=O)Nc3cc(Cl)c(Cl)cc32)Nc2ccccc21 [Compound A3051, 5,6-dichloroindirubin-3′-methoxime]
MCD-induced NASH mice
  hepatosteatosis (H&E): also reduced hepatosteatosis, but revealed only marginal effects compared to A3334
HFD-fed mice; [3]
  fasting glucose level: also reduced fasting glucose. However, effects of A3051 and I3O is similar to or little bit weaker than SITA
CXXC5-DVL interaction [1]; [4]
  IC50: 7.71 nM
CXXC5-DVL interaction [2]
  inhibition of CXXC5-DVL interaction (in words): effectively inhibited interaction between CXXC5 and DVL

## COc1ccc2c(c1)/C(=C1/Nc3ccccc3/C1=N\O)C(=O)N2 [Compound A3334, 5-Methoxyindirubin-3′-oxime]
MCD-induced NASH mice; then 25 mg/kg daily 3 weeks
  ALT and AST levels: mostly abolished by A3334 treatment
  FFAs and TG in serum: mostly abolished with A3334 treatment
  fibrosis, histological analyses: improvement of the MCD-diet induced fibrosis by A3334
  liver mRNA of pro-inflammation, FA oxidation, apoptosis and fibrosis markers: significantly reduced by A3334
MCD-induced NASH mice
  hepatosteatosis (H&E): significantly abolished by A3334 co-treatment
HFD-fed mice; HFD (DIO) mice
  thermogenesis and beige-fat markers in scWAT: exhibited elevated thermogenesis and beige-fat markers
HFD-fed mice; HFD mice
  Ca++ and Mg++ levels in serum: without any effect on Ca^++ and Mg^++ imbalance; also recorded: not significantly changed
  F4/80+ and CD11b+ cells / inflammation in adipose tissue: the populations of F4/80^+ and CD11b^+ cells decreased; also recorded: also suppressed by A3334
  energy expenditure and activity: increases energy expenditure via enhancing brown- and beige-fat activation; also recorded: higher energy expenditure and more active behavior than vehicle-treated mice
  mRNA of M1 and M2 macrophage marker genes in epiWAT: decreased and increased in the epiWAT of A3334-treated mice, respectively
  respiratory exchange ratio: lower respiratory exchange ratio
  serum ALT, AST, FFA (and TG): mostly suppressed by the A3334 treatment; also recorded: reduced by A3334; also recorded: also lowered by A3334; also recorded: significantly lowered by A3334
  transition of brown adipocytes to white adipocytes, UCP1 and GLUT4: suppressed by the A3334 treatment together with recovery of the levels of UCP1 and GLUT4
HFD-fed mice; HFD mice (FIG. 38G)
  serum adiponectin level: increased by A3334
HFD-fed mice; [5]
  glucose tolerance and insulin tolerance (GTT/ITT): significantly improved the systemic glucose tolerance and insulin resistance; also recorded: most significantly reduced by A3334
  insulin resistance (fasting insulin, HOMA-IR): improves diet-induced obesity and insulin resistance; also recorded: improved insulin resistance; also recorded: reduced by A3334; also recorded: mostly resolved by A3334 administration
HFD-fed mice; HFD mice, A3334 25 mg/kg
  body weight and food intake: the body weights were decreased without significant changes in food intake
  fat mass (body composition, tissue weights): reduction of overall fat mass
HFD-fed mice; HFD mice, A3334 25, metformin 100, sitagliptin 50 mpk (FIG. 38B-38F)
  levels of GTT/ITT, total cholesterol, fasting glucose, triglyceride, FFAs in serum: most significantly reduced by A3334
HFD-fed mice; HFD mice, H&E, Oil Red O
  hepatic steatosis (lipid droplets, fatty liver, hepatic TG): did not form lipid droplets with a reduction in the hepatic TG levels; also recorded: totally abolished by the A3334 treatment; also recorded: suppressed by A3334
HFD-fed mice; HFD mice, IHC
  Cxxc5 and β-catenin expression in epiWAT: Cxxc5 expression was mostly abolished and only a small amount remained in the nucleus with the elevation of nuclear β-catenin
  UCP1 protein level in BAT and scWAT: the protein level increment of the major thermogenin uncoupling protein 1 (UCP1) was confirmed in BAT and scWAT
HFD-fed mice; HFD mice, epiWAT/WAT, H&E
  crown-like structures and adipocyte size in white adipose tissue: significantly decreased the number of CLSs as well as the size of adipocytes; also recorded: suppressed HFD-induced increase in cell size and the expression of PPARγ and C/EBPα; also recorded: inhibited by the A3334 treatment
HFD-fed mice; HFD mice, light and dark periods
  oxygen consumption (VO2) and carbon dioxide production (VCO2): consumed higher oxygen (VO2) and exhaled more carbon dioxide (VCO2)
HFD-fed mice; HFD mice, mRNA
  Wnt/β-catenin signaling target genes in liver: induction of Wnt/β-catenin signaling target genes; also recorded: significantly increased by A3334 treatment
  Wnt/β-catenin target genes and lipogenesis/inflammation genes in white adipose tissue: upregulated with the regression of the lipogenesis genes; also recorded: significantly lowered by the A3334 treatment
  lipogenesis and gluconeogenesis genes in liver: repressed in the liver of A3334-treated mice; also recorded: significantly lowered by the A3334 treatment; also recorded: reduced by both A3334 and SITA, but A3334 showed better effectiveness
  thermogenesis / mitochondria biogenesis markers in BAT: significantly elevated expression levels of the key thermogenesis markers; also recorded: all increased by the A3334 treatment
HFD-fed mice; HFD mice, p.o. daily 5 days at weeks 8/9 and 12, A3334 25, sitagliptin 50, metformin 100 mg/kg
  persistence of fasting glucose control after end of treatment: prolonged effectiveness for the control of fasting glucose levels; also recorded: unexpected long-lasting glucose controlling effect; also recorded: long lasting effect in suppression of fast glucose level; also recorded: most significant and long last effects on fasting glucose control effect
HFD-fed mice; [3]
  fasting glucose level: lower in the A3334 treatment than in the sitagliptin and metformin treatment groups; also recorded: reduced similarly by treatment with all of these compounds at initial applications
HFD-fed mice; HFD mice, plasma, overnight fasted
  endocrine and metabolic parameters: total cholesterol, HDL-cholesterol, TG, adiponectin: much better effects than sitagliptin- and metformin-treated mice
HFD-fed mice; HFD mice, serum
  secretory proteins/adipokines, protein chip: decreased the expression levels of various secretory proteins
CXXC5-DVL interaction [1]; FIG. 10B, read-out: CXXC5-Dvl PPI inhibition IC50
  IC50: 63.1 nM
CXXC5-DVL interaction [1]; [4]
  IC50: 25.8 nM
CXXC5-DVL interaction [2]
  inhibition of CXXC5-DVL interaction (in words): effectively inhibited interaction between CXXC5 and DVL
